ChEMBL document CHEMBL3400144, “Design and synthesis of novel 1,2-dithiolan-4-yl benzoate derivatives as PTP1B inhibitors” (Bioorg Med Chem Lett, 2015)

Experiments:
[1] = biological target: T1, Tyrosine-protein phosphatase non-receptor type 2 (Homo sapiens, UniProt P17706); experiment: Inhibition of TCPTP (unknown origin)
T1 sequence (P17706 whole entry): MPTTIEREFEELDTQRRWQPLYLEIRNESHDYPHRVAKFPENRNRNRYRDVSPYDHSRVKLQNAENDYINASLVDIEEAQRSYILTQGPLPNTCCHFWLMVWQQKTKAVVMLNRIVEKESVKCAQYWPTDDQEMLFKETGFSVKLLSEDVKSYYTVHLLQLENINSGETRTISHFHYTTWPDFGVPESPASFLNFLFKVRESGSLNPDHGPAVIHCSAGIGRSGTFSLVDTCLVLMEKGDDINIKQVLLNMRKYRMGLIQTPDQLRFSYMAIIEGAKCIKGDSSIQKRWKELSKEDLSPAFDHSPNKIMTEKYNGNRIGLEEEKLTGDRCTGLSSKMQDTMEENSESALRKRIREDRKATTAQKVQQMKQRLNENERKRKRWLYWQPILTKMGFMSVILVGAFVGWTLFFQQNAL

[2] = biological target: Tyrosine-protein phosphatase non-receptor type 6 (Homo sapiens, UniProt P29350); experiment: Inhibition of SHP1 (unknown origin)
[3] = biological target: T2, Tyrosine-protein phosphatase non-receptor type 1 (Homo sapiens, UniProt P18031); experiment: Inhibition of PTP1B (unknown origin)
T2 sequence (P18031 whole entry): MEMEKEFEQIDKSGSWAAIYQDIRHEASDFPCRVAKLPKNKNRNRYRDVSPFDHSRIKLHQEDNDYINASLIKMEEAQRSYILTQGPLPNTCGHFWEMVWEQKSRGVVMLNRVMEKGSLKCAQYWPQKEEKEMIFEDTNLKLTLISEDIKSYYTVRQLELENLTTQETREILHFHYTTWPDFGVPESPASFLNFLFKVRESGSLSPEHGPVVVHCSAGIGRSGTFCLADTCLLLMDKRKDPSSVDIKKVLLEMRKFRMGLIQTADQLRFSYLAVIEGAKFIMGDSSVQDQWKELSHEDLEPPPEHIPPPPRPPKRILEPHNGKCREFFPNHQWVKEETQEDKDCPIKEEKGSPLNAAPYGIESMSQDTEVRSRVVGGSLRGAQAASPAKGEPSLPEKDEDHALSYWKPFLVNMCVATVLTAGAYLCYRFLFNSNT

Homo sapiens = organism: Homo sapiens; experiment: Selectivity ratio of IC50 for TCPTP (unknown origin) to IC50 for PTP1B (unknown origin)
[4] = biological target: Receptor-type tyrosine-protein phosphatase F (Homo sapiens, UniProt P10586); experiment: Inhibition of LAR (unknown origin)
[5] = biological target: T3, Tyrosine-protein phosphatase non-receptor type 11 (Homo sapiens, UniProt Q06124); experiment: Inhibition of SHP2 (unknown origin)
T3 sequence (Q06124 whole entry): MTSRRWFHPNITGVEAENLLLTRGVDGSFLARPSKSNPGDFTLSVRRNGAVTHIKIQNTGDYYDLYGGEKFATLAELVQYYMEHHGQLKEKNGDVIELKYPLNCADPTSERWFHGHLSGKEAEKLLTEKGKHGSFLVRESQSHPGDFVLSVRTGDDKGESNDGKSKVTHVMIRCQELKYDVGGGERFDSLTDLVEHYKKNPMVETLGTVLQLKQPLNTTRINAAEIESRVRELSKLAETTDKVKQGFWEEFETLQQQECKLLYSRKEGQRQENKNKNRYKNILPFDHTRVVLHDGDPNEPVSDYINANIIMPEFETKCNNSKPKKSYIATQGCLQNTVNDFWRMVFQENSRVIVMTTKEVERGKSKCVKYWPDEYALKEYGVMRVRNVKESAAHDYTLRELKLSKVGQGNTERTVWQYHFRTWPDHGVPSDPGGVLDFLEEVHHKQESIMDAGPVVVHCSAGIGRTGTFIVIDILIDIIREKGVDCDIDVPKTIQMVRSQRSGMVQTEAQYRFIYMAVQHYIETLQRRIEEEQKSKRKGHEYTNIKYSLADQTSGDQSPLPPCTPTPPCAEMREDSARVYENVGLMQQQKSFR

Receptor-type tyrosine-protein phosphatase F, sequence (P10586 whole entry): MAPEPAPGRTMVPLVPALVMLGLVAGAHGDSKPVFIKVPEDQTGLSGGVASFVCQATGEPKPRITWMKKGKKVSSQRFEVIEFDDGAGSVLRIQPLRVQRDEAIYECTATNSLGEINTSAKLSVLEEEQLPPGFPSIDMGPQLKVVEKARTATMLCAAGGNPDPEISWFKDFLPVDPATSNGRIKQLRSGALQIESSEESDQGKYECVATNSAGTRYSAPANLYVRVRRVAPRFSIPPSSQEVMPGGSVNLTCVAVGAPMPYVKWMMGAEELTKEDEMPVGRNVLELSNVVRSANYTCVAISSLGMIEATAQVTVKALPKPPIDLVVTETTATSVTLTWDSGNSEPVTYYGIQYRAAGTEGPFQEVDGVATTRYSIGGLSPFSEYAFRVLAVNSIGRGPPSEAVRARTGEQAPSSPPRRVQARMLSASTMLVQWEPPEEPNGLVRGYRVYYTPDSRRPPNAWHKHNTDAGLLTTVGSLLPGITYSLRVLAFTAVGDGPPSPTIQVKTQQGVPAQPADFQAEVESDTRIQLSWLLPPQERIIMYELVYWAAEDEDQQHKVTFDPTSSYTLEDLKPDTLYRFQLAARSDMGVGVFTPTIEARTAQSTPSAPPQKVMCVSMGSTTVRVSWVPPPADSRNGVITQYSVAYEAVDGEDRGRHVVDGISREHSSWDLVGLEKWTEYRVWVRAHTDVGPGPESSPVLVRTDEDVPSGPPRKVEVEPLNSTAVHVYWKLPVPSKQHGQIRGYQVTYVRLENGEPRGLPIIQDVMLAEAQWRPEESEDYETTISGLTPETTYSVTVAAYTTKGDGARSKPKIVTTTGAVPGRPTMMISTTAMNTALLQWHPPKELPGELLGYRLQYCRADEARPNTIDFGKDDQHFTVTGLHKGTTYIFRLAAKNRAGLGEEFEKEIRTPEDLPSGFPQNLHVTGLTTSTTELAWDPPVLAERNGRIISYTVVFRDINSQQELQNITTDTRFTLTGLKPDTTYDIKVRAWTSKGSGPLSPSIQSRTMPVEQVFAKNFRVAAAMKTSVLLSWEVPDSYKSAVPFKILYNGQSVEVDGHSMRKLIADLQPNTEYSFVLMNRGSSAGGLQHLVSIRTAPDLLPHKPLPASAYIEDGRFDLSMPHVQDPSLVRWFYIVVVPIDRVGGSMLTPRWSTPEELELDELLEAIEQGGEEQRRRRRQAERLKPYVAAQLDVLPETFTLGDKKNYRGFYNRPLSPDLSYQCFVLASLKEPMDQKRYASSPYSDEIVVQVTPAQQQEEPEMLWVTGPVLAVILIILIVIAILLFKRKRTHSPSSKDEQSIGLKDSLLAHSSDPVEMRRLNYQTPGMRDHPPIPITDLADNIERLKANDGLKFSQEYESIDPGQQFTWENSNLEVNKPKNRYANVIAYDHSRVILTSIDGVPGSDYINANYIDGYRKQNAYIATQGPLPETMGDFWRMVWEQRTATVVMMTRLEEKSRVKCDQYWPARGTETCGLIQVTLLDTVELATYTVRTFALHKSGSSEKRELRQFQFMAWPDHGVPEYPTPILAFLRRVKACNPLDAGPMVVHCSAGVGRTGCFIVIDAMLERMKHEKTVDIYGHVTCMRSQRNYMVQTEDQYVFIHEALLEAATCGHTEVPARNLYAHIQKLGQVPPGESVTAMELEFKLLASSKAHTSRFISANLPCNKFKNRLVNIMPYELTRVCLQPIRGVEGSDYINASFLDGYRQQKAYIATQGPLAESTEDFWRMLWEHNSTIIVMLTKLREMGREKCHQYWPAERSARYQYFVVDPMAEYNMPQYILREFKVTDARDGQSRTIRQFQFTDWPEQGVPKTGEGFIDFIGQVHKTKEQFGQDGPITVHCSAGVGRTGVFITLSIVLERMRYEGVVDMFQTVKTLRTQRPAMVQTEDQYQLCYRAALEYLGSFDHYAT
Tyrosine-protein phosphatase non-receptor type 6, sequence (P29350 whole entry): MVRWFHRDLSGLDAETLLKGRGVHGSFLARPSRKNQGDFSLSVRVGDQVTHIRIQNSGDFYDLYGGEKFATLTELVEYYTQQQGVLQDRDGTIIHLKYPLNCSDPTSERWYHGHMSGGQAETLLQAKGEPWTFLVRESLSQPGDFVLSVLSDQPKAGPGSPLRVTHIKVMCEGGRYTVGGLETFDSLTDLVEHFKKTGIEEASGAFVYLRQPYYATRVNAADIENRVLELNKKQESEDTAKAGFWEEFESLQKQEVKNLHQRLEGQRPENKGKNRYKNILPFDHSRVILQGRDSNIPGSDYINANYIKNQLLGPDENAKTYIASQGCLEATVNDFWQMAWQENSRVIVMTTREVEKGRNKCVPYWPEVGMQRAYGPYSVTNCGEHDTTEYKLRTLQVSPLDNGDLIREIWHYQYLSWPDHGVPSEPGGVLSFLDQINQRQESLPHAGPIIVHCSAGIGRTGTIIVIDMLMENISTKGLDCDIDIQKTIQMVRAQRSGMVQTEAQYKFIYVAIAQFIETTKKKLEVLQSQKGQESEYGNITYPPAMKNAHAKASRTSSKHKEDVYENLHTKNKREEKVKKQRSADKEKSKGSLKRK

| Compound | IC50 [1] [µM] | IC50 ([2]; read-out: IC50) [µM] | IC50 ([3]; read-out: IC50) [µM] | Ratio IC50 (Homo sapiens) | IC50 [4] | IC50 ([5]; read-out: IC50) [µM] | IC50 [2] | IC50 [5] | IC50 [3] |
| --- | --- | --- | --- | --- | --- | --- | --- | --- | --- |
| O=C(OC1CSSC1)c1ccc(C#CCCOC(=O)c2cc(Br)ccc2Br)cc1 | 26.7 | 15.7 | 2.73 | 10 | Not Active | 8.25 |  |  |  |
| COc1cccc(C(=O)OCCCCC#Cc2ccc(C(=O)OC3CSSC3)cc2)c1 | 26.3 | 38.4 | 26.3 |  | Not Active | 34.6 |  |  |  |
| O=C(OC1CSSC1)c1ccc(OCCCCCCOC(=O)c2cc(Br)ccc2Br)cc1 | 30.8 |  | 8.85 |  | Not Active |  | Not Active | Not Active |  |
| O=C(OC1CSSC1)c1ccc(C#CCCCCOC(=O)c2cc(Br)ccc2Br)cc1 | 1.88 |  | 0.59 | 3 | Not Active | 13.2 | Not Active |  |  |
| O=C(OC1CSSC1)c1ccc(OCCOC(=O)c2cc(Br)ccc2Br)cc1 | 35 |  | 7.26 |  | Not Active |  | Not Active | Not Active |  |
| COc1ccccc1C(=O)OCCCCC#Cc1ccc(C(=O)OC2CSSC2)cc1 | 23.2 | 19.3 | 23.5 |  | Not Active | 18.3 |  |  |  |
| O=C(OC1CSSC1)c1ccc(C#CCCCCOC(=O)c2ccccc2[N+](=O)[O-])cc1 | 7.83 | 9.25 | 9.12 |  | Not Active | 11.5 |  |  |  |
| O=C(OCCCCC#Cc1ccc(C(=O)OC2CSSC2)cc1)c1ccc(F)cc1 | 4.36 | 9.21 | 4.68 |  | Not Active | 9.41 |  |  |  |
| O=C(OC1CSSC1)c1ccc(C#CCCCCOC(=O)c2ccccc2F)cc1 | 6.48 | 8.67 | 4.43 |  | Not Active | 10.5 |  |  |  |
| COc1ccc(C(=O)OCCCCC#Cc2ccc(C(=O)OC3CSSC3)cc2)c(OC)c1 | 20 |  | 4.27 | 5 | Not Active |  | Not Active | Not Active |  |
| COc1ccc(C(=O)OCCCCC#Cc2ccc(C(=O)OC3CSSC3)cc2)cc1 | 4.58 | 5.13 | 6.55 |  | Not Active | 6.64 |  |  |  |
| O=C(OC1CSSC1)c1ccc(OCCCOC(=O)c2cc(Br)ccc2Br)cc1 | 27.6 | 32.2 |  |  | Not Active | 10.9 |  |  | Not Active |
| O=C(OCCCCC#Cc1ccc(C(=O)OC2CSSC2)cc1)c1cccc(F)c1 | 9.21 | 10 | 5.18 |  | Not Active | 8.91 |  |  |  |
| O=C(OCCCCC#Cc1ccc(C(=O)OC2CSSC2)cc1)c1ccc([N+](=O)[O-])cc1 | 9.46 | 24.9 | 10.1 |  | Not Active | 24.6 |  |  |  |
| O=C(OC1CSSC1)c1ccc(CCCCCCOC(=O)c2cc(Br)ccc2Br)cc1 | 17.4 | 11.1 | 2.68 | > 6 | Not Active | 9.69 |  |  |  |
| O=C(OCCCCC#Cc1ccc(C(=O)OC2CSSC2)cc1)c1cccc([N+](=O)[O-])c1 | 12.9 | 23.6 | 9.7 |  | Not Active | 22.3 |  |  |  |
